Test results reported in ChEMBL document CHEMBL5321223, “Effects and mechanism of action of Chrysanthemum morifolium (Jinsi Huangju) on hyperlipidemia and non-alcoholic fatty liver disease” (Eur J Med Chem, 2023).
Active and inactive are the calls of the source. The rule behind the calls is not given here.

Tests used:
[1] = target: T1, Pancreatic triacylglycerol lipase (Homo sapiens) (UniProt P16233); assay: Inhibition of Pancreatic lipase (unknown origin) using 4-methylumbelleallyl oleate as substrate at 50 uM by microplate reader assay
T1 sequence (whole entry): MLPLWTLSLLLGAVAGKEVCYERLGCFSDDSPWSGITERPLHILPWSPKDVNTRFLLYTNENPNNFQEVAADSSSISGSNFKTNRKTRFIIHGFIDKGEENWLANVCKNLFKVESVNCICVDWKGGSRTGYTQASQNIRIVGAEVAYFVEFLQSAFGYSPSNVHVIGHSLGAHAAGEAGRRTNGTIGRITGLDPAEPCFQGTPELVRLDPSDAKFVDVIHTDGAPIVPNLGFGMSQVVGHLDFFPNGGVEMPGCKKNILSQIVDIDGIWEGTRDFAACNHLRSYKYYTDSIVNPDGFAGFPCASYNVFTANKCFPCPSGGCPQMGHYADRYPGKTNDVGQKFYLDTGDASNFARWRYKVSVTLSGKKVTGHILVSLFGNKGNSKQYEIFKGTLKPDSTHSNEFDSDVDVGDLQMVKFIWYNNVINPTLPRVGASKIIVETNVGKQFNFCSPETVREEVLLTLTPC

[2] = target: T1, Pancreatic triacylglycerol lipase (Homo sapiens); assay: Inhibition of Pancreatic lipase (unknown origin) using 4-methylumbelleallyl oleate as substrate at 5 uM by microplate reader assay
[3] = system: HepG2; assay: Cytotoxicity against human HepG2 cells assessed as reduction in cell survival at 50 uM; format: toxicity, cell-based; conditions: hepg2, 50 µM
[4] = system: HepG2; assay: Hypolipidemic activity in sodium oleate and sodium palmitate induced human HepG2 cells assessed as decrease in intracellular lipid content at 50 uM by Oil Red O staining based assay; format: functional; design: scale not given: the % may be the effect or the level left
[5] = system: HepG2; assay: Hypolipidemic activity in sodium oleate and sodium palmitate induced human HepG2 cells assessed as decrease in intracellular lipid content at 5 uM by Oil Red O staining based assay; format: functional; design: scale not given: the % may be the effect or the level left
[6] = system: HepG2; assay: Hypolipidemic activity in sodium oleate and sodium palmitate induced human HepG2 cells assessed as decrease in intracellular lipid content at 0.2 uM by Oil Red O staining based assay; format: functional, cell-based
[7] = system: HepG2; assay: Hypolipidemic activity in sodium oleate and sodium palmitate induced human HepG2 cells assessed as decrease in intracellular lipid content at 0.2 to 50 uM by Oil Red O staining based assay; format: functional, cell-based; conditions: dose 0.2-50 µM
[8] = system: HepG2; assay: Hypolipidemic activity in sodium oleate and sodium palmitate induced human HepG2 cells assessed as decrease in intracellular triglyceride level at 50 uM; format: functional; design: scale not given: the % may be the effect or the level left
[9] = system: HepG2; assay: Hypolipidemic activity in sodium oleate and sodium palmitate induced human HepG2 cells assessed as decrease in intracellular triglyceride level at 10 uM; format: functional; design: scale not given: the % may be the effect or the level left
[10] = system: HepG2; assay: Hypolipidemic activity in sodium oleate and sodium palmitate induced human HepG2 cells assessed as decrease in intracellular triglyceride level at 5 uM; format: functional; design: scale not given: the % may be the effect or the level left
[11] = system: HepG2; assay: Hypolipidemic activity in sodium oleate and sodium palmitate induced human HepG2 cells assessed as decrease in intracellular triglyceride level at 1 uM; format: functional; design: scale not given: the % may be the effect or the level left
[12] = system: HepG2; assay: Hypolipidemic activity in sodium oleate and sodium palmitate induced human HepG2 cells assessed as decrease in intracellular triglyceride level at 0.2 uM; format: functional; design: scale not given: the % may be the effect or the level left
[13] = system: HepG2; assay: Anti-hyperglycemic activity in 24 hrs serum deprived human HepG2 cells assessed as alleviation in insulin resistance by measuring increase in cellular glucose consumption at 0.2 to 50 uM and measured after 24 hrs by glucose kit anlaysis; format: functional, cell-based; conditions: dose 0.2-50 µM
[14] = system: HepG2; assay: Activation of AMPK signaling pathway in human HepG2 cells assessed as increase in AMPK phosphorylation at 0.2 to 50 uM by Western blot analysis; format: cell-based; conditions: filed as activator, dose 0.2-50 µM
[15] = system: HepG2; assay: Activation of AMPK signaling pathway in human HepG2 cells assessed as increase in ACC phosphorylation at 0.2 to 50 uM by Western blot analysis; format: cell-based; conditions: filed as activator, dose 0.2-50 µM
[16] = system: Mus musculus; assay: Hypolipidemic activity in 24hrs fasted tyloxapol induced NAFLD Kunming mouse model assessed as decrease in serum TC level at 50 to 200 mg/kg, IG and measured after 24 hrs by biochemical analysis relative to control; format: functional, organism-based; conditions: dose 50-200 mg/kg
[17] = system: Mus musculus; assay: Hypolipidemic activity in 24hrs fasted tyloxapol induced NAFLD Kunming mouse model assessed as decrease in serum TG level at 50 to 200 mg/kg, IG and measured after 24 hrs by biochemical analysis relative to control; format: functional, organism-based; conditions: dose 50-200 mg/kg
[18] = system: Mus musculus; assay: Hypolipidemic activity in 24hrs fasted tyloxapol induced NAFLD Kunming mouse model assessed as decrease in serum LDL-C level at 50 to 200 mg/kg, IG and measured after 24 hrs by biochemical analysis relative to control; format: functional, organism-based; conditions: dose 50-200 mg/kg
[19] = system: Mus musculus; assay: Hypolipidemic activity in 24hrs fasted tyloxapol induced NAFLD Kunming mouse model assessed as increase in serum HDL-C level at 50 to 200 mg/kg, IG and measured after 24 hrs by biochemical analysis relative to control; format: functional, organism-based; conditions: dose 50-200 mg/kg
[20] = system: Mus musculus; assay: Hypolipidemic activity in 24hrs fasted tyloxapol induced NAFLD Kunming mouse model assessed as decrease in hepatic TC level at 50 to 200 mg/kg, IG and measured after 24 hrs by biochemical analysis relative to control; format: functional, organism-based; conditions: dose 50-200 mg/kg
[21] = system: Mus musculus; assay: Hypolipidemic activity in 24hrs fasted tyloxapol induced NAFLD Kunming mouse model assessed as decrease in hepatic TG level at 50 to 200 mg/kg, IG and measured after 24 hrs by biochemical analysis relative to control; format: functional, organism-based; conditions: dose 50-200 mg/kg
[22] = system: Mus musculus; assay: Hypolipidemic activity in 24hrs fasted tyloxapol induced NAFLD Kunming mouse model assessed as decrease in hepatic LDL-C level at 50 to 200 mg/kg, IG and measured after 24 hrs by biochemical analysis relative to control; format: functional, organism-based; conditions: dose 50-200 mg/kg
[23] = system: Mus musculus; assay: Hypolipidemic activity in 24hrs fasted tyloxapol induced NAFLD Kunming mouse model assessed as increase in hepatic HDL-C level at 50 to 200 mg/kg, IG and measured after 24 hrs by biochemical analysis relative to control; format: functional, organism-based; conditions: dose 50-200 mg/kg
[24] = system: Mus musculus; assay: Reduction in liver damage in 24hrs fasted tyloxapol induced NAFLD Kunming mouse model assessed as decrease in serum ALT level at 50 to 200 mg/kg, IG and measured after 24 hrs by biochemical analysis relative to control; format: functional, organism-based; conditions: dose 50-200 mg/kg
[25] = system: Mus musculus; assay: Reduction in liver damage in 24hrs fasted tyloxapol induced NAFLD Kunming mouse model assessed as decrease in serum AST level at 50 to 200 mg/kg, IG and measured after 24 hrs by biochemical analysis relative to control; format: functional, organism-based; conditions: dose 50-200 mg/kg
[26] = system: Mus musculus; assay: Reduction in liver damage in 24hrs fasted tyloxapol induced NAFLD Kunming mouse model assessed as decrease in ALT level in liver at 50 to 200 mg/kg, IG and measured after 24 hrs by biochemical analysis relative to control; format: functional, organism-based; conditions: dose 50-200 mg/kg
[27] = system: Mus musculus; assay: Reduction in liver damage in 24hrs fasted tyloxapol induced NAFLD Kunming mouse model assessed as decrease in AST level in liver at 50 to 200 mg/kg, IG and measured after 24 hrs by biochemical analysis relative to control; format: functional, organism-based; conditions: dose 50-200 mg/kg
[28] = system: Mus musculus; assay: Reduction in oxidative stress in 24hrs fasted tyloxapol induced NAFLD Kunming mouse model assessed as increase in serum SOD level at 50 to 200 mg/kg, IG and measured after 24 hrs by biochemical analysis relative to control; format: functional, organism-based; conditions: dose 50-200 mg/kg
[29] = system: Mus musculus; assay: Reduction in oxidative stress in 24hrs fasted tyloxapol induced NAFLD Kunming mouse model assessed as decrease in hepatic MPO level at 50 to 200 mg/kg, IG and measured after 24 hrs by biochemical analysis relative to control; format: functional, organism-based; conditions: dose 50-200 mg/kg
[30] = system: Mus musculus; assay: Amelioration of hepatic lesion in 24hrs fasted tyloxapol induced NAFLD Kunming mouse model assessed as reduction in liver morphology alteration at 50 to 200 mg/kg, IG; format: functional, organism-based; conditions: dose 50-200 mg/kg
[31] = system: Mus musculus; assay: Amelioration of hepatic lesion in 24hrs fasted tyloxapol induced NAFLD Kunming mouse model assessed as reduction in liver index at 50 to 200 mg/kg, IG; format: functional, organism-based; conditions: dose 50-200 mg/kg
[32] = system: Mus musculus; assay: Amelioration of hepatic lesion in 24hrs fasted tyloxapol induced NAFLD Kunming mouse model assessed as reduction in hepatic steatosis at 50 to 200 mg/kg, IG by H and E staining based analysis; format: functional, organism-based; conditions: dose 50-200 mg/kg
[33] = system: Mus musculus; assay: Amelioration of hepatic lesion in 24hrs fasted tyloxapol induced NAFLD Kunming mouse model assessed as reduction in fat deposition at 50 to 200 mg/kg, IG by H and E staining based analysis; format: functional, organism-based; conditions: dose 50-200 mg/kg
[34] = system: Mus musculus; assay: Amelioration of hepatic lesion in 24hrs fasted tyloxapol induced NAFLD Kunming mouse model assessed as reduction in hepatic steatosis at 50 to 200 mg/kg, IG by Oil red O staining based analysis; format: functional, organism-based; conditions: dose 50-200 mg/kg
[35] = system: Mus musculus; assay: Amelioration of hepatic lesion in 24hrs fasted tyloxapol induced NAFLD Kunming mouse model assessed as reduction in fat deposition at 50 to 200 mg/kg, IG by Oil red O staining based analysis; format: functional, organism-based; conditions: dose 50-200 mg/kg
[36] = Reduction in hepatic inflammation in 24hrs fasted tyloxapol induced NAFLD Kunming mouse model assessed as decrease in IL-6 level in liver at 50 mg/kg, IG and measured after 24 hrs; format: functional; design: scale not given: the % may be the effect or the level left
[37] = Reduction in hepatic inflammation in 24hrs fasted tyloxapol induced NAFLD Kunming mouse model assessed as decrease in IL-6 level in liver at 100 mg/kg, IG and measured after 24 hrs; format: functional; design: scale not given: the % may be the effect or the level left
[38] = Reduction in hepatic inflammation in 24hrs fasted tyloxapol induced NAFLD Kunming mouse model assessed as decrease in IL-6 level in liver at 200 mg/kg, IG and measured after 24 hrs; format: functional; design: scale not given: the % may be the effect or the level left
[39] = system: Mus musculus; assay: Hypolipidemic activity in 24hrs fasted tyloxapol induced NAFLD Kunming mouse model assessed as decrease in spleen index at 50 to 200 mg/kg, IG relative to control; format: functional, organism-based; conditions: dose 50-200 mg/kg
[40] = system: Mus musculus; assay: Hypolipidemic activity in 24hrs fasted tyloxapol induced NAFLD Kunming mouse model assessed as decrease in epididymis in white adipose tissue at 200 mg/kg, IG relative to control; format: functional, organism-based
[41] = system: Mus musculus; assay: In vivo activation of AMPK pathway in 24hrs fasted tyloxapol induced NAFLD Kunming mouse model assessed as increase in AMPK phosphorylation in liver at 200 mg/kg, IG and measured after 24 hrs by Western blot anlaysis; format: functional, organism-based
[42] = system: Mus musculus; assay: In vivo activation of AMPK pathway in 24hrs fasted tyloxapol induced NAFLD Kunming mouse model assessed as increase in ACC phosphorylation in liver at 200 mg/kg, IG and measured after 24 hrs by Western blot anlaysis; format: functional, organism-based

## O=c1cc(-c2ccc(O)cc2)oc2cc(O[C@@H]3O[C@H](CO)[C@@H](O)[C@H](O)[C@H]3O)cc(O)c12 [APIGETRIN]
[1]
  inhibition: 59.1%
[2]
  inhibition: 13.2%
[3]
  Activity: Non-Toxic
[4]
  Activity: 97.7%
[5]
  Activity: 95.1%

## O=C(O)CC(=O)OC[C@H]1O[C@@H](Oc2cc(O)c3c(=O)cc(-c4ccc(O)cc4)oc3c2)[C@H](O)[C@@H](O)[C@@H]1O
[1]
  inhibition: 47.2%
[2]
  inhibition: 35%
[3]
  Activity: Non-Toxic
[4]
  Activity: 67.3%
[5]
  Activity: 74.9%
[6]
  Activity: Active
[7]
  Activity: Dose-Dependent Effect
[8]
  Activity: 73%
[9]
  Activity: 55.1%
[10]
  Activity: 54.7%
[11]
  Activity: 52.2%
[12]
  Activity: 48.6%
[13]
  Activity: Active
[14]
  Activity: Active
[15]
  Activity: Active
[16]
  Activity: Active
[17]
  Activity: Active
[18]
  Activity: Active
[19]
  Activity: Active
[20]
  Activity: Active
[21]
  Activity: Active
[22]
  Activity: Active
[23]
  Activity: Active
[24]
  Activity: Active
[25]
  Activity: Active
[26]
  Activity: Active
[27]
  Activity: Active
[28]
  Activity: Active
[29]
  Activity: Active
[30]
  Activity: Active
[31]
  Activity: Active
[32]
  Activity: Active
[33]
  Activity: Active
[34]
  Activity: Active
[35]
  Activity: Active
[36]
  Activity: 23.68%
[37]
  Activity: 22.44%
[38]
  Activity: 18.03%
[39]
  Activity: Active
[40]
  Activity: Active
[41]
  Activity: Active
[42]
  Activity: Active

## O=C(O)CC(=O)OC[C@H]1O[C@@H](Oc2cc(O)c3c(=O)cc(-c4ccc(O)c(O)c4)oc3c2)[C@H](O)[C@@H](O)[C@@H]1O
[1]
  inhibition: 65.8%
[3]
  Activity: Non-Toxic
[4]
  Activity: 57.1%
[5]
  Activity: 61.5%

## O=c1cc(-c2ccc(O)c(O)c2)oc2cc(O)cc(O)c12 [LUTEOLIN]
[1]
  inhibition: 41.2%
[2]
  inhibition: 27.4%
[3]
  Activity: Toxic
[5]
  Activity: 91.6%
